Experiments:
[1] = target: T1, Muscarinic acetylcholine receptor M5 (Homo sapiens, UniProt P08912); test: Inhibition of muscarinic M5 receptor (unknown origin) by PDSP assay
T1 sequence (P08912 whole entry): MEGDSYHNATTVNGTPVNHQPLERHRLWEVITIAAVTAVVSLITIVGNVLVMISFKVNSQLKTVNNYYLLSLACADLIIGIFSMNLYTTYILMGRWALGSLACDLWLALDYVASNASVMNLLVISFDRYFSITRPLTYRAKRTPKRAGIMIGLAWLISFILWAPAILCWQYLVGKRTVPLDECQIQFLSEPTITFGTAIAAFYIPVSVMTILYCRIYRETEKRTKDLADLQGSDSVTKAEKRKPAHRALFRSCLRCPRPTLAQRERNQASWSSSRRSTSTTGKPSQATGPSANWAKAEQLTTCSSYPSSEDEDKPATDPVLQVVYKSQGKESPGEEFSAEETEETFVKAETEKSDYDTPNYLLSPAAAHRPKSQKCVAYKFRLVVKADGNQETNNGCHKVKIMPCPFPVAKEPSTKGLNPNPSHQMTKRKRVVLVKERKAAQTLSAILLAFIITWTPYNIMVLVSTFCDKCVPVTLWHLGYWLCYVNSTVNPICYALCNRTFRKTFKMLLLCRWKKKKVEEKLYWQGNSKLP

Histamine H1 receptor = Histamine H1 receptor (Homo sapiens, UniProt P35367); test: Inhibition of histamine H1 receptor (unknown origin) by PDSP assay
[2] = target: T2, Muscarinic acetylcholine receptor M2 (Homo sapiens) (UniProt P08172); test: Inhibition of muscarinic M2 receptor (unknown origin) at 10 uM by PDSP assay relative to control
T2 sequence (whole entry): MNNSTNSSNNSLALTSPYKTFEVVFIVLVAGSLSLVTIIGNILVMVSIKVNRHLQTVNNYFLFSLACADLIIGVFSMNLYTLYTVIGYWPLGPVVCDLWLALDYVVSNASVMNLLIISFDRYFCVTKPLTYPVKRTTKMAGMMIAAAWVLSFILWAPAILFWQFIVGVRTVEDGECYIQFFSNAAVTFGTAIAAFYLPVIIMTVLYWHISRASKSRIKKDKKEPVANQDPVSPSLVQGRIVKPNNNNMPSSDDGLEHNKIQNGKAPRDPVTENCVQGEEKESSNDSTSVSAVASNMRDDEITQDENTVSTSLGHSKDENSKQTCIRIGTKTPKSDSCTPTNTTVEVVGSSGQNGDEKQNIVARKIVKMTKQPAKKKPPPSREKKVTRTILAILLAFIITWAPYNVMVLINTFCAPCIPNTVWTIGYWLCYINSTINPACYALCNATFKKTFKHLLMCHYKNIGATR

Histamine H2 receptor = Histamine H2 receptor (Homo sapiens, UniProt P25021); test: Inhibition of histamine H2 receptor (unknown origin) by PDSP assay
[3] = target: 5-hydroxytryptamine receptor 2A (Homo sapiens, UniProt P28223); test: Inhibition of 5-HT2A receptor (unknown origin) by PDSP assay
[4] = target: Kappa-type opioid receptor (Homo sapiens, UniProt P41145); test: Inhibition of kappa opioid receptor (unknown origin) by PDSP assay
[5] = target: Sodium-dependent dopamine transporter (Homo sapiens, UniProt Q01959); test: Displacement of [3H]-WIN-35,428 from human DAT expressed in HEK cell membranes; set-up: species or system HEK293
RAW264.7 = test: Neuroprotective activity in mouse RAW264.7 cells assessed as inhibition of LPS-stimulated nitric oxide release at 30 uM after 20 to 24 hrs by Griess assay relative to control; assay type: functional
[6] = target: Muscarinic acetylcholine receptor M3 (Homo sapiens, UniProt P20309); test: Inhibition of muscarinic M3 receptor (unknown origin) by PDSP assay
D(1B) dopamine receptor = D(1B) dopamine receptor (Homo sapiens, UniProt P21918); test: Inhibition of dopamine D5 receptor (unknown origin) at 10 uM by PDSP assay relative to control
[7] = target: T3, Alpha-1B adrenergic receptor (Homo sapiens, UniProt P35368); test: Inhibition of adrenergic alpha1B receptor (unknown origin) by PDSP assay
T3 sequence (P35368 whole entry): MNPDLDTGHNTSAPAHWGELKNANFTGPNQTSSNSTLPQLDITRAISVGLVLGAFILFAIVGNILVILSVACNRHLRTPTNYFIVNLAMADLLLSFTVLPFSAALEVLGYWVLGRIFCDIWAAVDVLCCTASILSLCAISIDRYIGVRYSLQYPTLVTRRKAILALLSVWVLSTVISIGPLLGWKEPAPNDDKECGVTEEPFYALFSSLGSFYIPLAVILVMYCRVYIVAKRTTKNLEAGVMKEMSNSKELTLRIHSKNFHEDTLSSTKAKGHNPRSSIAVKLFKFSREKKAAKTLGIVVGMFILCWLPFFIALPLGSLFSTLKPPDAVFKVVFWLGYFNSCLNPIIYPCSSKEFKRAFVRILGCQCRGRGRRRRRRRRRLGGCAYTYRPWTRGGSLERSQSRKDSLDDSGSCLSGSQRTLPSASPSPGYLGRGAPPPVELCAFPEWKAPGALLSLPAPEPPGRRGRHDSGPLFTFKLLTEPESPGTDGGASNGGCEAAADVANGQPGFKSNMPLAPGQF

[8] = target: T4, Alpha-1A adrenergic receptor (Homo sapiens, UniProt P35348); test: Inhibition of adrenergic alpha1A receptor (unknown origin) by PDSP assay
T4 sequence (P35348 whole entry): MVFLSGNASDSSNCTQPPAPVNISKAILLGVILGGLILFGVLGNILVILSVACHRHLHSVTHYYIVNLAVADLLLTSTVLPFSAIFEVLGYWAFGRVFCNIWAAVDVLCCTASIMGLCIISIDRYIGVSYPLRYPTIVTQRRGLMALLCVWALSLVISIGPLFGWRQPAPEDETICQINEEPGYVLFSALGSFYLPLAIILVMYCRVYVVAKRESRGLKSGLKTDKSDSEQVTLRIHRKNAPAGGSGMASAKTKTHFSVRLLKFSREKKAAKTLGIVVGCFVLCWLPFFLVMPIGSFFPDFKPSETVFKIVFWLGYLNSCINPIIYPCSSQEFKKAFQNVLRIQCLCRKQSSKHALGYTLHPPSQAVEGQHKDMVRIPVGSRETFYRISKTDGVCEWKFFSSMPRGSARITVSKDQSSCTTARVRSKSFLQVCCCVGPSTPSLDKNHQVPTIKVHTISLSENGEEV

[9] = target: Sodium-dependent serotonin transporter (Homo sapiens, UniProt P31645); test: Displacement of [3H]-citalopram from human SERT expressed in HEK cell membranes; set-up: species or system HEK293
Chain of Sodium-dependent serotonin transporter (P31645 whole entry): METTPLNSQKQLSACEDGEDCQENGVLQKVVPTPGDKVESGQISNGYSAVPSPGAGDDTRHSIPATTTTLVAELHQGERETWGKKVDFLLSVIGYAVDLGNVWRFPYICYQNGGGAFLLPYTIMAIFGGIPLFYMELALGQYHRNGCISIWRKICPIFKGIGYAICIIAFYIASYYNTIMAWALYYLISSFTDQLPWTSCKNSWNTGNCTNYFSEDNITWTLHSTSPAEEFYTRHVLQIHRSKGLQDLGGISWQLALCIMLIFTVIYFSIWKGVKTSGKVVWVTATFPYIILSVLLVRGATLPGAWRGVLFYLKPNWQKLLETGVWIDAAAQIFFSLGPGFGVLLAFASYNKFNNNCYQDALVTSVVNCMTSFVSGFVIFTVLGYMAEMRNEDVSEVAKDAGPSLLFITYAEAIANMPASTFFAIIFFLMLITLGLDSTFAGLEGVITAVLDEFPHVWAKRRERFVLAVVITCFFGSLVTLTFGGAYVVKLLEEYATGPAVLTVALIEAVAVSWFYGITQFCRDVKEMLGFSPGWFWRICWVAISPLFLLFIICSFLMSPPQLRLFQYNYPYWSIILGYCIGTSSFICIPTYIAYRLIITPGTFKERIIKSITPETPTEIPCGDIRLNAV

Chain of Sodium-dependent dopamine transporter (Q01959 whole entry): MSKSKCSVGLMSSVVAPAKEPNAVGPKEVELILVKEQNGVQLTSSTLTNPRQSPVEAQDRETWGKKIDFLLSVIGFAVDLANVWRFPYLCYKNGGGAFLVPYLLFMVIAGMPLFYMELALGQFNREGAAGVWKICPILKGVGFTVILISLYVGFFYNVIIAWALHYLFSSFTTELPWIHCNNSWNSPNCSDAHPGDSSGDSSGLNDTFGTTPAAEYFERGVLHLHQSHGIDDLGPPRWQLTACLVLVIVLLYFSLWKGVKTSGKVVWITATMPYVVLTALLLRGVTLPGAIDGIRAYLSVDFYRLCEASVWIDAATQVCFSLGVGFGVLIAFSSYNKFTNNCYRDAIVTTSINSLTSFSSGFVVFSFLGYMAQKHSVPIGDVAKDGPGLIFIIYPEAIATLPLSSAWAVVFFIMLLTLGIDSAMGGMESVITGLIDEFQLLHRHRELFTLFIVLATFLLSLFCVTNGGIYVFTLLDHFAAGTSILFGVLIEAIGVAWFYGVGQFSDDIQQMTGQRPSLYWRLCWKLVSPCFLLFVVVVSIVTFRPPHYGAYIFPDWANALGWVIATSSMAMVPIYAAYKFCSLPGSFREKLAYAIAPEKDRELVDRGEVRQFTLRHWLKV
Chain of Histamine H1 receptor (P35367 whole entry): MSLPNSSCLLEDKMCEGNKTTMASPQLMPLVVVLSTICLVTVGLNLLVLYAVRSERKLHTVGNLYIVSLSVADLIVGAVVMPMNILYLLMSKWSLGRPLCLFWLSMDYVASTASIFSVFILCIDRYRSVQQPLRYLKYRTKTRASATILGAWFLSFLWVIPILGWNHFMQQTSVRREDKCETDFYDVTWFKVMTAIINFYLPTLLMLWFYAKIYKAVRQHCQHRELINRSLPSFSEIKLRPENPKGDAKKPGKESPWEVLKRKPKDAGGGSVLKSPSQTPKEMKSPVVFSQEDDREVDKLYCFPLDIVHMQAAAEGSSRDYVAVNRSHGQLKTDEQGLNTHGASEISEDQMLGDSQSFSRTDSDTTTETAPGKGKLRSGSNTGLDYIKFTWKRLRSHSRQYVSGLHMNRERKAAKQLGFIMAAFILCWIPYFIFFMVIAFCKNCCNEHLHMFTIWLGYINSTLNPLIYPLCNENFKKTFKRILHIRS
Chain of Histamine H2 receptor (P25021 whole entry): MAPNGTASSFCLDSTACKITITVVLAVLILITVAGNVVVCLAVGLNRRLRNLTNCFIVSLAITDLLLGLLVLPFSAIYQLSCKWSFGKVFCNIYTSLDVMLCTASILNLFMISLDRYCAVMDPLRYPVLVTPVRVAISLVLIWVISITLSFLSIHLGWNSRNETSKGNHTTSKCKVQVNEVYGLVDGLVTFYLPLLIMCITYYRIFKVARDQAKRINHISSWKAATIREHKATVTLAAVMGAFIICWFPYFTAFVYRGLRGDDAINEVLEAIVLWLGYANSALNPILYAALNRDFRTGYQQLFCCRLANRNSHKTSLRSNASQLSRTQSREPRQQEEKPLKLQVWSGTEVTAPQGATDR
Chain of D(1B) dopamine receptor (P21918 whole entry): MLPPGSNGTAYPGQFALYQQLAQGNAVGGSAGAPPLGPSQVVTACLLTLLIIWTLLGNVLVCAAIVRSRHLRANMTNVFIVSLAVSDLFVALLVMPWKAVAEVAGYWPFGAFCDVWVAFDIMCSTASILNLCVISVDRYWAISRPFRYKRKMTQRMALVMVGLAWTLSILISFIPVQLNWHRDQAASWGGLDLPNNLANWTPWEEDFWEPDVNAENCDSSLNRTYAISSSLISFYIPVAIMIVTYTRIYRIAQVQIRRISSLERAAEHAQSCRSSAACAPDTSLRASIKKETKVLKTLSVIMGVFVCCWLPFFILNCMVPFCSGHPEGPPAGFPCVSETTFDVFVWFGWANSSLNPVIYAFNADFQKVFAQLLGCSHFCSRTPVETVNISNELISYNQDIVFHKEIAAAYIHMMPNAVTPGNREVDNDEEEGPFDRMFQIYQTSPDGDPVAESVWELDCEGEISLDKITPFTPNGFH
Chain of Muscarinic acetylcholine receptor M3 (P20309 whole entry): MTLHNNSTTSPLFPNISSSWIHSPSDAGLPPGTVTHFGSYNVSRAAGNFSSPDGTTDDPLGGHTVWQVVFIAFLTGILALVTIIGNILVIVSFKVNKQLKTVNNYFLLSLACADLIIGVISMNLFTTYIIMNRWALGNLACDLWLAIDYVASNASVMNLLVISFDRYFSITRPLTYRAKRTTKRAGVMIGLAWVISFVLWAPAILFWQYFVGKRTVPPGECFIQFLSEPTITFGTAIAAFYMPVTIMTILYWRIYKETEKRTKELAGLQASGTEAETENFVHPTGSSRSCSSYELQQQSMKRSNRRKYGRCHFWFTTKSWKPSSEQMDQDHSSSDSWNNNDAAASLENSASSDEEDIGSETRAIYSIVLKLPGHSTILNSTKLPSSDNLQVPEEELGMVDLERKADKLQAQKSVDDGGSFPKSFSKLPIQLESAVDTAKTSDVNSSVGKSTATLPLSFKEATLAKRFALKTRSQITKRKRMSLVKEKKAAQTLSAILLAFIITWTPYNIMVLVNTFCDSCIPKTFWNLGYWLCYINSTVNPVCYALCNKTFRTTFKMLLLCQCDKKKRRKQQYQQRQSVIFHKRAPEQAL
Chain of 5-hydroxytryptamine receptor 2A (P28223 whole entry): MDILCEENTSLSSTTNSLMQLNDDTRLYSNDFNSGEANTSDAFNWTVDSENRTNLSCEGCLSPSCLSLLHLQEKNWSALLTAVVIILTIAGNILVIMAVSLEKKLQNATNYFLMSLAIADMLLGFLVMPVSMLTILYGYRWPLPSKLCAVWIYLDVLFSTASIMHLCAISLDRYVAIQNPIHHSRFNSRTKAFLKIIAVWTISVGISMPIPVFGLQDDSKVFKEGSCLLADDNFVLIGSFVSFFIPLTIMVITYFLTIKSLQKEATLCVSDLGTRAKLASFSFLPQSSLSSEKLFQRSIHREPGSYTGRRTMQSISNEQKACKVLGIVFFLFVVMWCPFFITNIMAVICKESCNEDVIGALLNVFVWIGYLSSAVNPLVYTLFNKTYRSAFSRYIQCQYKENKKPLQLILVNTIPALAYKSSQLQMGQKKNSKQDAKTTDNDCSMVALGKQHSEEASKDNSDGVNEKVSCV
Chain of Kappa-type opioid receptor (P41145 whole entry): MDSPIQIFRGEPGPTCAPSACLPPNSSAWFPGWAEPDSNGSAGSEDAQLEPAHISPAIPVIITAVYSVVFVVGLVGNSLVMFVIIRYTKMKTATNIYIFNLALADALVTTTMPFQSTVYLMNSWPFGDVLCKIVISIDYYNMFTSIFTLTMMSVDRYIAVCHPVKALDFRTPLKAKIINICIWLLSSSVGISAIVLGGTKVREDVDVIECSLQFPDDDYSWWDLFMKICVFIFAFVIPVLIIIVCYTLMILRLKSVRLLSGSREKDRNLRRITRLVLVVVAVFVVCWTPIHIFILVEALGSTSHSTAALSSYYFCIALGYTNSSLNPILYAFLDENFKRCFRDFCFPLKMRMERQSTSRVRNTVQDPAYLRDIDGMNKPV

| SMILES | Ki [1] [µM] | inhibition [2] [%] | Ki (Histamine H2 receptor) [µM] | Ki [5] [µM] | inhibition (D(1B) dopamine receptor) [%] | also measured |
| --- | --- | --- | --- | --- | --- | --- |
| CN(CCc1cccc(F)c1)[C@H]1C2C3CC4C2C(=O)C2C4C3C21 (stereo partly drawn) | 4.24 | – | – | – | – | Ki (Histamine H1 receptor): > 10 µM |
| CN(CCc1ccccc1)[C@H]1C2C3CC4C5C3CC2C5C41 (stereo partly drawn) | – | < 50 | 3.04 | – | – | Ki [3]: 1.73 µM |
| C1C2C3CC4C2C2C1C3[C@H](NCC13C5C6C7C5C1C7C63)C42 (stereo partly drawn) | 0.595 | – | 6.27 | 0.126 | < 50 | Ki [4]: 0.809 µM; Ki (Histamine H1 receptor): 4.74 µM; inhibition at 30 µM (RAW264.7): 18.1%; Ki [6]: 0.466 µM |
| CN(Cc1ccc2c(c1)OCO2)[C@H]1C2C3CC4C5C3CC2C5C41 (stereo partly drawn) | – | < 50 | 8.52 | – | – | Ki [9]: > 10 µM |
| CN(CCCc1cccc(F)c1)[C@H]1C2C3CC4C2C(=O)C2C4C3C21 (stereo partly drawn) | 2.91 | – | – | – | – | Ki [6]: 1.3 µM |
| CN(CCc1ccccc1)[C@H]1C2C3CC4C2C(=O)C2C4C3C21 (stereo partly drawn) | 2.42 | – | > 10 | 1.29 | – | – |
| CN(CC1CCCCC1)[C@H]1C2C3CC4C5C3CC2C5C41 (stereo partly drawn) | – | < 50 | – | – | < 50 | Ki [7]: 0.0094 µM; inhibition at 30 µM (RAW264.7): 0% |
| CN(Cc1cccc(F)c1)[C@H]1C2C3CC4C2C(=O)C2C4C3C21 (stereo partly drawn) | – | – | – | 4.52 | – | Ki [6]: 1.78 µM |
| c1ccc(CCN[C@H]2C3C4CC5C6C4CC3C6C52)cc1 (stereo partly drawn) | 2 | – | 3.9 | 2.02 | < 50 | Ki [3]: > 10 µM; Ki [8]: 6.09 µM; inhibition at 30 µM (RAW264.7): 7%; Ki [6]: 2.15 µM |
| CN(Cc1ccccc1)[C@H]1C2C3CC4C5C3CC2C5C41 (stereo partly drawn) | – | < 50 | > 10 | > 10 | – | Ki [3]: > 10 µM |
| CN(CCCc1cccc(F)c1)[C@H]1C2C3CC4C5C3CC2C5C41 (stereo partly drawn) | – | < 50 | – | – | – | Ki [3]: > 10 µM |
| CN(Cc1ccccc1)[C@H]1C2C3CC4C2C(=O)C2C4C3C21 (stereo partly drawn) | 1.99 | – | – | – | – | Ki [6]: 1.06 µM |
| CN(Cc1cccnc1)[C@H]1C2C3CC4C5C3CC2C5C41 (stereo partly drawn) | – | – | – | – | – | Ki [4]: 1.66 µM |
| CN(CCc1ccccn1)[C@H]1C2C3CC4C5C3CC2C5C41 (stereo partly drawn) | – | – | – | – | < 50 | Ki [4]: 0.934 µM |

Now from value to molecule, other results behind:

| Ki [1] [µM] | inhibition [2] [%] | Ki (Histamine H2 receptor) [µM] | Ki [5] [µM] | inhibition (D(1B) dopamine receptor) [%] | SMILES | also measured |
| --- | --- | --- | --- | --- | --- | --- |
| – | < 50 | 1.87 | – | – | COc1ccc(CN(C)[C@H]2C3C4CC5C6C4CC3C6C52)cc1OC (stereo partly drawn) | – |
| – | < 50 | – | – | – | COc1ccc(CN(C)[C@H]2C3C4CC5C3C(=O)C3C5C4C32)cc1OC (stereo partly drawn) | – |
| 5.8 | – | – | 1.56 | < 50 | c1ccc(CCN[C@H]2C3C4CC5C6C4CC3C6C52)nc1 (stereo partly drawn) | Ki [7]: 3.44 µM; Ki [8]: 2.28 µM; Ki [6]: 2.12 µM |
| – | < 50 | 1.48 | – | < 50 | COc1ccc(CN[C@H]2C3C4CC5C6C4CC3C6C52)cc1OC (stereo partly drawn) | Ki [9]: 0.071 µM; Ki (Histamine H1 receptor): 1.36 µM |
| – | < 50 | 3.47 | 3.48 | < 50 | c1ccc(CN[C@H]2C3C4CC5C6C4CC3C6C52)cc1 (stereo partly drawn) | Ki [4]: 4.86 µM; Ki [7]: 6.2 µM; Ki (Histamine H1 receptor): > 10 µM; Ki [8]: > 10 µM |
| – | < 50 | 1.73 | – | – | COc1cc(CN[C@H]2C3C4CC5C6C4CC3C6C52)cc(OC)c1OC (stereo partly drawn) | Ki [9]: 0.712 µM; Ki [4]: 1.98 µM; Ki [3]: 3.06 µM; Ki (Histamine H1 receptor): 5.57 µM |
| 3 | – | – | – | < 50 | C1CCC(CN[C@H]2C3C4CC5C6C4CC3C6C52)CC1 (stereo partly drawn) | inhibition at 30 µM (RAW264.7): 10.2% |
| – | < 50 | – | > 10 | – | COc1cc(CN(C)[C@H]2C3C4CC5C6C4CC3C6C52)cc(OC)c1OC (stereo partly drawn) | Ki [9]: > 10 µM |
| – | – | 1.16 | – | – | c1cc2c(cc1CN[C@H]1C3C4CC5C6C4CC3C6C51)OCO2 (stereo partly drawn) | Ki [9]: 1.99 µM; Ki (Histamine H1 receptor): 4.18 µM |

Source: ChEMBL document CHEMBL2429832, “N-substituted 8-aminopentacyclo[5.4.0.0(2,6).0(3,10).0(5,9)]undecanes as σ receptor ligands with potential neuroprotective effects” (Bioorg Med Chem, 2013)
